Experimental data taken from patent publication EP0536208B1, “1,2-DIHYDRO-3H-DIBENZISOQUINOLINE-1,3-DIONE ANTICANCER AGENTS” (RESEARCH CORPORATION TECHNOLOGIES, INC., priority 1990, dated 1992).
pIC50: −log10 of the molar value.

How the values were obtained:
205p14 = experiment: Activity against human colon tumor cells (MTT assay, 3 day drug exposure); assay type: cell-based; settings: cells plated 24 hr. prior to drug addition, read-out: Concentration for 50% inhibition of colony formation for human colon tumors
Experimental: (§1) For example, the compounds of the present invention were evaluated for cytotoxic activities in cloned human colon carcinomas. The clonogenic assays were conducted in accordance with the procedure described hereinbelow: 1) Colony Forming Assays in Soft Agar: Fresh human or murine tumors are disaggregated into single cell suspensions using mechanical, hypoosmotic and/or enzymatic (trypsin) methods. The single cells (about 5 X 10^4-10^5) are plated in 35 mm plastic petri dishes onto a 1 ml "feeder layer" of 0.3% agar dissolved in growth medium containing 5-10% vol/vol of heat-inactivated fetal bovine serum, molten 0.3% agar and the antibiotics penicillin (100 u/mL) and streptomycin (100 ug/mL). Drug exposures can be performed for one hour or continuously (drugs added to final plating medium). Tumor cell colonies > 60 uM in size are counted by automated image analysis after 10-20 days of incubation in a humidified, 5-10% CO2-gassed environment maintained at 37°C. Inhibition of colony formation is calculated based on comparisons to control (untreated) plates wherein the growth of hundreds of colonies/plate is typical. (Salmon SE, et al., N Engl J Med 298(24):1321-1327, 1978).
(§2) Compounds of the present invention were tested for their in vitro activity in tumor cells sensitive and resistant to standard anti-cancer agents. The tumor cell lines used in this protocol are 8226 human Myeloma^1; 8226/Dox-40^2, L-1210/Murine Leukemia, multidrug resistant L-210/^3, 2780 Human Ovarian Cancer and 2780/AD^4. Each of these resistant cell lines is known as a multidrug resistant or "MDR" cell line. These cell lines produce a 170,00 molecular weight membrane protein termed the P-glycoprotein which acts as an active drug efflux pump. Thus, once a cell produces the P-glycoprotein, it has the capability of pumping out of the cell a large variety of unrelated natural products. […] The protocol for measuring the effectiveness of compounds of the present invention is as follows: 2) In Vitro Tumor Cell Viability Assays Using MTT-Dye: Tumors are processed into a single cell suspension as described above. The cells are plated at a concentration of 3-5 X 10^4/1 mL well into plastic 96-well plates. Growth medium containing 5-10% (vol/vol) heat-inactivated fetal bovine serum and penicillin/streptomycin (as above) is added prior to incubation at 37°C for six days. Afterwards the medium containing the drug is removed, the cells are "washed" by centrifugation in fresh medium or phosphate-buffered saline (pH 7.4). A tetrazolium dye is then added (3,4,5-dimethylthiazol-2-yl)-2,5-diphenyl tetrazolium bromide (MTT). This dye forms a colored formazan product upon activation by mitochondrial reductases in viable cells. Typically, the formazan product is solubilized in acid-propanol or DMSO. The intensity of the color is proportional to viable cell numbers and this is quantitated by spectrophotometric absorbance ([…]) on a micro ELISA plate reader. Test results are calibrated in % control absorbance from untreated tumor cells (Mossman T: J Immunol Meth 65:55-63, 1983). Using the above procedure, Compound 1 was tested for its cytotoxic activity with respect to various tumor cell lines.

LOVOp32 = experiment: as above; assay type: cell-based; settings: cells plated 24 hr. prior to drug addition, read-out: Concentration for 50% inhibition of colony formation for human colon tumors
Experimental: as §1, §2

HT29p30 = experiment: as above; assay type: cell-based; settings: cells plated 24 hr. prior to drug addition, read-out: Concentration for 50% inhibition of colony formation for human colon tumors
Experimental: as §1
as §2, with “Growth medium containing 5-10% (vol/vol) heat-inactivated fetal bovine serum and penicillin/streptomycin (as above) is added prior to incubation at 37°C for six days.” left out

SW80p105 = experiment: as above; assay type: cell-based; settings: cells plated 24 hr. prior to drug addition, read-out: Concentration for 50% inhibition of colony formation for human colon tumors
Experimental: as §1
as §2, with “Growth medium containing 5-10% (vol/vol) heat-inactivated fetal bovine serum and penicillin/streptomycin (as above) is added prior to incubation at 37°C for six days.” left out

[1] = tested on: P-388 lymphocytic leukemia; settings: mice; cited from earlier work
[2] = tested on: P-388/ADR (adriamycin-Resis-tant); settings: mice; cited from earlier work
Colon-38 Adenocarcinoma = settings: mice; cited from earlier work
[3] = tested on: 16-C Mammary Adenocarcinoma; settings: cited from earlier work
M5-76 Sarcoma = settings: cited from earlier work
FRESH HUMAN TUMORS = experiment: Colony forming assay in fresh human tumors, all tumor types; assay type: cell-based; settings: Total of all tumor types; .001 ug/mL continuously; tumor cell survival of less than 50% of control
Experimental: as §1, with “The” for “For example, the compounds of the present invention were evaluated for cytotoxic activities in cloned human colon carcinomas. The”, “(Salmon SE, et al., N Engl J Med 298(24):1321-1327, 1978).” left out
Fresh human tumor specimens disaggregated to single cell suspensions and exposed to .001 ug/mL of drug continuously. Percent survival represents the fraction of tumor colonies (> 60 uM size) obtained after drug treatment compared to untreated cells of the same tumor. […] Each tumor sample is analyzed in three different petri dishes (i.e., n = 3 for each sample).

SMILES	pIC50 (205p14)	pIC50 (LOVOp32)	pIC50 (HT29p30)	pIC50 (SW80p105)	Comparative Activity From The Literature, ILS (Percentage Increased Lifespan) [1] [ILS]	Comparative Activity From The Literature, ILS (Percentage Increased Lifespan) [2] [ILS]	Comparative Activity From The Literature, Days of Tumor Growth Delay (Colon-38 Adenocarcinoma) [days]	Comparative Activity From The Literature, Days of Tumor Growth Delay [3] [days]	Comparative Activity From The Literature, Days of Tumor Growth Delay (M5-76 Sarcoma) [days]	Overall Response (FRESH HUMAN TUMORS) [%]
CN(C)CCN1C(=O)c2cccc3cc(N)cc(c23)C1=O [Amonafide, amino-N-dimethylaminoethylbenz[de]isoquinoline]	6.80	6.22	6.02	6.24	99	35	<7	7	7	–
COc1cccc2c1C(=O)c1c(O)c3c(c(O)c1C2=O)C[C@@](O)(C(=O)CO)C[C@@H]3O[C@H]1C[C@H](N)[C@H](O)[C@H](C)O1 [Doxorubicin]	–	–	–	–	164	18	10	–	–	20
